Experimental findings from PMC10455244, “Alpha-Mangostin: A Potent Inhibitor of TRPV3 and Pro-Inflammatory Cytokine Secretion in Keratinocytes” (International Journal of Molecular Sciences, 2023) are described below.

One assay deals with IL-8. Nature of the assay: ELISA, carvacrol-induced IL-8 release in NHEK. Format: cell-based, human. The settings on record: 1 µM with 300 µM carvacrol, 24 h. The source says: Constitutive activation of TRPV3 due to continuous stimulation or the presence of Olmsted mutations causes noticeable skin inflammation due to the increased secretion of pro-inflammatory cytokines from the keratinocytes. Besides, in atopic dermatitis (AD), cytokine release from keratinocytes contributes to the inflammatory environment, which drives many characteristic AD symptoms. Therefore, we determined the effect of TRPV3 activation on cytokine release instead of TRPV3 expression and evaluated whether alpha-mangostin suppressed TRPV3-mediated cytokine secretion in normal human keratinocytes. The levels of secreted cytokines (interleukin (IL)-6, IL-8, and tumor necrosis factor-alpha (TNF-α)) were measured using enzyme-linked Immunosorbent assay (ELISA) kits due to their high sensitivity and quantitation ability. The cells were induced with 300 µM carvacrol, with or without 1 µM alpha-mangostin, and 10 µM 74a.
Figure 5 Alpha-mangostin (α-MG) inhibited carvacrol-induced cytokine release in NHEK cells and rescued carvacrol-induced cell death. (A) Alpha-mangostin inhibited the carvacrol-induced release of IL-8 and IL-6 in NHEK. Cells were induced by 300 µM carvacrol with or without either 1 µM alpha-mangostin or 10 µM 74a for 24 h before the ELISA assay. (B) Alpha-mangostin reduced cell death caused by carvacrol in human keratinocytes. […]
In general terms: An ELISA detects its analyte on a solid surface through an enzyme-linked reagent.

A further assay concerns human keratinocytes. It is filed as cell-based. The settings on record: 0.3 µM with 500 µM carvacrol, 24 h. As for the experimental part: Figure 5 Alpha-mangostin (α-MG) inhibited carvacrol-induced cytokine release in NHEK cells and rescued carvacrol-induced cell death. (A) Alpha-mangostin inhibited the carvacrol-induced release of IL-8 and IL-6 in NHEK. Cells were induced by 300 µM carvacrol with or without either 1 µM alpha-mangostin or 10 µM 74a for 24 h before the ELISA assay. (B) Alpha-mangostin reduced cell death caused by carvacrol in human keratinocytes. Cells were induced by 500 µM carvacrol with or without either 0.3 µM alpha-mangostin or 10 µM 74a for 24 h. The optical density (O.D.) values were normalized to those of the untreated cells. Data are shown as means ± SEM. **** p < 0.0001.
Strong activation of TRPV3 in keratinocytes by carvacrol at concentrations higher than 300 µM was reported to cause cell death. Therefore, we examined the effect of alpha-mangostin in keratinocytes exposed to 500 µM carvacrol.
The cell counting kit-8 (CCK8; Dojindo Laboratories, Kumamoto, Japan) was employed for viability assay. Keratinocytes (10^4 cells/well) plated in 96-well plates were incubated for about one day before exposing them to alpha-mangostin for 24 h. […] The optical density (O.D., 450 nm) of each well was measured after incubating the cells with CCK-8 solution ([…]) for 2 h. […]

For a further assay, the target named is T1, TRPV3 (Homo sapiens, UniProt Q8NET8).
T1 sequence (Q8NET8 1-790): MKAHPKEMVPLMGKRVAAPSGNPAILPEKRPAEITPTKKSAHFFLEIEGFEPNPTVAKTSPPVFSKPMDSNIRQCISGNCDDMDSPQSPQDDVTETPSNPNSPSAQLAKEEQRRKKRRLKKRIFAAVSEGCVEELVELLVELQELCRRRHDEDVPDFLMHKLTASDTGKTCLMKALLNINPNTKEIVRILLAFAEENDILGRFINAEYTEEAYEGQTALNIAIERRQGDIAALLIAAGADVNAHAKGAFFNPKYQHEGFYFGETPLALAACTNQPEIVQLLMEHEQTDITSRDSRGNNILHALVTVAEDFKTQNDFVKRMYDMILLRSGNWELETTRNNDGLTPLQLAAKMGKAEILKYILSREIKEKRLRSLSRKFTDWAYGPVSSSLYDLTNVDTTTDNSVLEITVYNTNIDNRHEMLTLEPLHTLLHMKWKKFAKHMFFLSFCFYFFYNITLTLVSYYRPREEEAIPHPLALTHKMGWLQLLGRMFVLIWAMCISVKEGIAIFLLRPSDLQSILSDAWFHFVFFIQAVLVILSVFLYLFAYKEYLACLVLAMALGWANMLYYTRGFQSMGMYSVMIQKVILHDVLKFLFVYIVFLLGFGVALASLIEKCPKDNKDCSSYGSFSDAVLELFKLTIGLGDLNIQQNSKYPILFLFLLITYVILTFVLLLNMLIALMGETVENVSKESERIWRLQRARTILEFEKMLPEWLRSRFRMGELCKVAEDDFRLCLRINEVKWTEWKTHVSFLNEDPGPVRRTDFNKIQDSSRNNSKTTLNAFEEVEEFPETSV
Nature of the assay: Whole-cell patch-clamp, carvacrol-evoked TRPV3 current in TRPV3-overexpressing HEK 293T cells. Format: cell-based. Also noted: host or cells: NHEK. The settings on record: 1000 µM carvacrol, −100 mV, at higher concentrations. (Patch clamp records ionic current or voltage across a cell membrane.)

On to `COc1c(O)cc2oc3cc(O)c(CC=C(C)C)c(O)c3c(=O)c2c1CC=C(C)C` [Alpha-mangostin], for which, in the assay on IL-8, the “Effect on IL-8 levels” value was “drastically attenuated”. For the same compound, the “Effect on carvacrol-induced decrease of cell viability” value with human keratinocytes was “significantly reversed”. Also, on TRPV3, the “Effect on TRPV3 current induced by carvacrol” value was “suppressed”.
